Data reported in ChEMBL document CHEMBL5113422, “Structure-based rational design enables efficient discovery of a new selective and potent AKT PROTAC degrader” (Eur J Med Chem, 2022).
Calls of active or inactive are those of the source. The calls are words filed in the database; no cut-off is given here.

Columns and labels:
JeKo-1 [1] = test: Antiproliferative activity against human Jeko-1 cells assessed as cell viability measured after 7 days by CCK-8 assay; assay type: functional, cell-based; conditions: JeKo-1, 168 h
[2] = Antiproliferative activity against human Mino cells assessed as cell viability measured after 7 days by CCK-8 assay; assay type: functional, cell-based; conditions: 168 h
JeKo-1 [3] = test: Antiproliferative activity against human Jeko-1 cells expressing CRBN-knockout assessed as cell viability measured after 7 days by CCK-8 assay; assay type: functional, cell-based; conditions: JeKo-1, 168 h
MM1.S [4] = test: Antiproliferative activity against human MM1.S cells assessed as cell viability measured after 3 days by CCK-8 assay; assay type: functional, cell-based; conditions: 72 h
MM1.S [5] = test: Antiproliferative activity against human MM1.S cells assessed as cell viability measured after 7 days by CCK-8 assay; assay type: functional, cell-based; conditions: 168 h
[6] = biological target: Protein cereblon/Zinc finger protein Aiolos (Homo sapiens) (UniProt Q96SW2+Q9UKT9); test: Protac activity at CRBN/IKZF3 in human Jeko-1 cells assessed as IKZF3 degradation at 500 nM after 12 hrs by immunoblot analysis; assay type: cell-based
[7] = biological target: Protein cereblon/RAC-alpha serine/threonine-protein kinase (Homo sapiens) (UniProt P31749+Q96SW2); test: Protac activity at CRBN/Akt1 in human Jeko-1 cells assessed as Akt1 degradation at 500 nM after 12 hrs by immunoblot analysis; assay type: cell-based
Protein cereblon/AKT [8] = biological target: T1, Protein cereblon/AKT (Homo sapiens, UniProt P31751+Q9Y243+P31749+Q96SW2); test: Protac activity at CRBN/Akt in human Jeko-1 cells assessed as Akt degradation after 24 hrs by immunoblot analysis relative to control; assay type: cell-based
Protein cereblon/AKT [9] = biological target: T1, Protein cereblon/AKT; test: Protac activity at CRBN/Akt in human Jeko-1 cells assessed as Akt degradation at 250 nM after 24 hrs by immunoblot analysis relative to control; assay type: cell-based
[10] = biological target: Protein cereblon/RAC-beta serine/threonine-protein kinase (Homo sapiens) (UniProt P31751+Q96SW2); test: Protac activity at CRBN/Akt2 in human Jeko-1 cells assessed as Akt2 degradation at 500 nM after 12 hrs by immunoblot analysis; assay type: cell-based
Protein cereblon/AKT [11] = biological target: T1, Protein cereblon/AKT; test: Protac activity at CRBN/Akt in human Jeko-1 cells assessed as decrease in phosphorylated GSK3beta level after 24 hrs by immunoblot analysis; assay type: cell-based; conditions: dose 10-1000 nM
Protein cereblon/AKT [12] = biological target: T1, Protein cereblon/AKT; test: Protac activity at CRBN/Akt in human Jeko-1 cells assessed as Akt degradation at 250 nM after 2 hrs by immunoblot analysis; assay type: cell-based
Protein cereblon/AKT [13] = biological target: T1, Protein cereblon/AKT; test: Protac activity at CRBN/Akt in human Jeko-1 cells assessed as decrease in Myc level after 24 hrs cotreated with Ibrutinib by immunoblot analysis; assay type: cell-based
JeKo-1 [14] = test: Antiproliferative activity against human Jeko-1 cells assessed as cell viability measured after 3 days cotreated with Ibrutinib by CCK-8 assay; assay type: functional, cell-based; conditions: time 3.0 day

Sequence of Protein cereblon/RAC-alpha serine/threonine-protein kinase (Homo sapiens) (P31749 whole entry, looked up): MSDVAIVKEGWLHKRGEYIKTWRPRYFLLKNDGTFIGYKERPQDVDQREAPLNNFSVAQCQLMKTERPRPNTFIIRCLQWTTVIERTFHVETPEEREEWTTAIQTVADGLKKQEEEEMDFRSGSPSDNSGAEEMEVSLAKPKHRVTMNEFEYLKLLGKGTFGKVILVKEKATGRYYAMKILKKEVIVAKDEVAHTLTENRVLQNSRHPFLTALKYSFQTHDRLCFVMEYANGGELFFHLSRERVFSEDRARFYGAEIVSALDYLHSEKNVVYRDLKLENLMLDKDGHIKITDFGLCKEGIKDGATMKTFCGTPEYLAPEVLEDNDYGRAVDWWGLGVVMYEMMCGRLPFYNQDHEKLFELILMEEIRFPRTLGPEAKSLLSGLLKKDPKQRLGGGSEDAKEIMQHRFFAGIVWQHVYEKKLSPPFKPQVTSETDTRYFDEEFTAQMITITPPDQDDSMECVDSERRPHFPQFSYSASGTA
Sequence of Protein cereblon/RAC-alpha serine/threonine-protein kinase (Homo sapiens) (Q96SW2 whole entry, looked up): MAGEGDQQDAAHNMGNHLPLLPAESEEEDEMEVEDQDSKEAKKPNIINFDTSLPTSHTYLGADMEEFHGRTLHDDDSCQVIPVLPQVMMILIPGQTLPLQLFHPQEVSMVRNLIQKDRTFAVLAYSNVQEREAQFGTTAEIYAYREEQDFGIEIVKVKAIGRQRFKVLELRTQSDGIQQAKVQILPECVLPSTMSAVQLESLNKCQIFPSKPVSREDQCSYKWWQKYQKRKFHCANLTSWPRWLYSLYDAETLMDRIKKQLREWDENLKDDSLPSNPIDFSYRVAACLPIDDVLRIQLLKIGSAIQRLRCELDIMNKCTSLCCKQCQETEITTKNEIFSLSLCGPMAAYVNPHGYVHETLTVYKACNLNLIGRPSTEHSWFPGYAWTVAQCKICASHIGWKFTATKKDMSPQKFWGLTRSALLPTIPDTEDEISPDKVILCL
Sequence of Protein cereblon/Zinc finger protein Aiolos (Homo sapiens) (Q96SW2 whole entry, looked up): as above
Sequence of Protein cereblon/Zinc finger protein Aiolos (Homo sapiens) (Q9UKT9 whole entry, looked up): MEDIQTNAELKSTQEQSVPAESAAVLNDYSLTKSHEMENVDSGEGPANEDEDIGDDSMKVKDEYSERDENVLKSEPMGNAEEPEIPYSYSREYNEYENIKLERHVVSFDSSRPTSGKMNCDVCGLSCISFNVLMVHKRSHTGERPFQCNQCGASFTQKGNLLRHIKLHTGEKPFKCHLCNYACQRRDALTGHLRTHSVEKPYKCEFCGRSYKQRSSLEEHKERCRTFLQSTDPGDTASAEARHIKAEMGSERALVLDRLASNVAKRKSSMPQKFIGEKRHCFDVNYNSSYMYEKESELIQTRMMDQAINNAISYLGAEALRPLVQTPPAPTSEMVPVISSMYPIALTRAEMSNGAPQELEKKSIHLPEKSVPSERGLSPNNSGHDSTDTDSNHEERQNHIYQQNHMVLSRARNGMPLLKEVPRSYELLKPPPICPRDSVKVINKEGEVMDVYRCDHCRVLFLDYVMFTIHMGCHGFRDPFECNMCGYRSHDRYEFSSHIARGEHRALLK
Sequence of Protein cereblon/RAC-beta serine/threonine-protein kinase (Homo sapiens) (P31751 whole entry, looked up): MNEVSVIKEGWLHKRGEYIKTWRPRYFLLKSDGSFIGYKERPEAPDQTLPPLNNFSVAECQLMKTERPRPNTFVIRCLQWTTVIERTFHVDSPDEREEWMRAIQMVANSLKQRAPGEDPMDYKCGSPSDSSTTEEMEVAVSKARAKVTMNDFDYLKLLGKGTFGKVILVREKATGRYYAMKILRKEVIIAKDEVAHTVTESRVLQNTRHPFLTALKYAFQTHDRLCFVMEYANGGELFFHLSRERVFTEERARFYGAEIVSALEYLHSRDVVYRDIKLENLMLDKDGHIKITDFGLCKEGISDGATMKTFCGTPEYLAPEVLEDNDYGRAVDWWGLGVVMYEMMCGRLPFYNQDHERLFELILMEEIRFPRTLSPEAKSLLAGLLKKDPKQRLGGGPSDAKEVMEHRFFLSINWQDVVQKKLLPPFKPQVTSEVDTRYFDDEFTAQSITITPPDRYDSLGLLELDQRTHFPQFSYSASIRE
Sequence of Protein cereblon/RAC-beta serine/threonine-protein kinase (Homo sapiens) (Q96SW2 whole entry, looked up): as the sequence (Q96SW2 whole entry, looked up) above
T1 sequence (P31751 whole entry): as the sequence (P31751 whole entry, looked up) above
T1 sequence (Q9Y243 whole entry): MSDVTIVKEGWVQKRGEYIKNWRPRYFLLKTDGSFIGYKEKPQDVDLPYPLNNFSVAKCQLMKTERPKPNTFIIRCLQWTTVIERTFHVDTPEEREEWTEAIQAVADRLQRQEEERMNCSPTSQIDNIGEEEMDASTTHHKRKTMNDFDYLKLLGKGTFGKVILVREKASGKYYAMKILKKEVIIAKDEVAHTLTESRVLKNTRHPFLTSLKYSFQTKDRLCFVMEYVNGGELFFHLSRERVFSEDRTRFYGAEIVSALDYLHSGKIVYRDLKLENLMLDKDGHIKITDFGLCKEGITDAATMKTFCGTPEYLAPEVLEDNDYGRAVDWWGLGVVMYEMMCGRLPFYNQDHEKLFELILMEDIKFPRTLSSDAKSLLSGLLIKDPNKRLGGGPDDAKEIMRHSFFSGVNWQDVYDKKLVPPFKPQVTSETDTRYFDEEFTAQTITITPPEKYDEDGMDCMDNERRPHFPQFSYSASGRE
T1 sequence (P31749 whole entry): as the sequence (P31749 whole entry, looked up) above
T1 sequence (Q96SW2 whole entry): as the sequence (Q96SW2 whole entry, looked up) above

SMILES	IC50 (MM1.S [4])	IC50 (MM1.S [5])	Activity [6]	Activity [7]	DC50 (Protein cereblon/AKT [8])	Activity (Protein cereblon/AKT [9])	Activity [10]	Activity (Protein cereblon/AKT [11])	Activity (Protein cereblon/AKT [12])	Activity (Protein cereblon/AKT [13])	IC50 (JeKo-1 [1])	IC50 [2]	IC50 (JeKo-1 [3])	Activity (JeKo-1 [14])
CNC(=O)C[C@@H]1C[C@@H](c2cccc(F)c2)[C@H](NC(=O)c2ccc(-c3c(Cl)cnn3C)s2)CN1	72.9 nM	72.4 nM									506 nM	3370 nM	350 nM	
Nc1cccc2c1C(=O)N(C1CCC(=O)NC1=O)C2=O (stereo not given) [POMALIDOMIDE]	838 nM	21.9 nM									2620 nM	16500 nM	> 20000 nM	
Cn1ncc(Cl)c1-c1cc(C(=O)N[C@@H]2CN[C@H](CC(=O)Nc3ccc(OCCOCCOCCNc4cccc5c4C(=O)N(C4CCC(=O)NC4=O)C5=O)cc3)C[C@H]2c2cccc(F)c2)oc1Cl (stereo not given in full)	79 nM	23.4 nM	Active	Active	28 nM	95%	Active	Active	Active	Active	205 nM	2270 nM	2320 nM	Active
Cn1ncc(Cl)c1-c1ccc(C(=O)N[C@@H]2CN[C@H](CC(=O)Nc3ccc(OCCOCCOCCNc4cccc5c4C(=O)N(C4CCC(=O)NC4=O)C5=O)cc3)C[C@H]2c2cccc(F)c2)s1 (stereo not given in full)						95%								

Second part, led by results:

IC50 (MM1.S [4])	IC50 (MM1.S [5])	Activity [6]	Activity [7]	DC50 (Protein cereblon/AKT [8])	Activity (Protein cereblon/AKT [9])	Activity [10]	Activity (Protein cereblon/AKT [11])	Activity (Protein cereblon/AKT [12])	Activity (Protein cereblon/AKT [13])	SMILES	IC50 (JeKo-1 [1])	IC50 [2]	IC50 (JeKo-1 [3])	Activity (JeKo-1 [14])
> 20000 nM	70.2 nM									Nc1cccc2c1CN(C1CCC(=O)NC1=O)C2=O (stereo not given) [LENALIDOMIDE]	> 20000 nM	> 20000 nM	> 20000 nM	
4790 nM	40.3 nM									COCCOCCOCCNc1cccc2c1C(=O)N(C1CCC(=O)NC1=O)C2=O (stereo not given)	> 20000 nM	> 20000 nM	> 20000 nM	
